From patent US20190099502A1, “TARGETING THE NEURONAL CALCIUM SENSOR 1 FOR TREATING WOLFRAM SYNDROME” (INSERM (INSTITUT NATIONAL DE LA SANTÉ ET DE LA RECHERCHE …, priority 2016, published 2019)
Where a SMILES comes first, the peptide text is derived from it. The star is where a group is joined. Cbz = O=C(OCc1ccccc1)*

Test system: NCS1 expression
Assay: Time course immunoblotting of NCS1 in fibroblasts treated with MG-132
Assay type: cell-based, human
Details: 10 μM MG-132, 16 h
Protocol: Immunoprecipitates were analysed by western blotting with antibodies against Flag and myc. Input represents cell lysate. n=3 independent experiments. (B) Transcript levels of WFS1 were quantified by RT-qPCR in control (C1, C2) and patient fibroblasts (P1, P2). The mRNA levels were normalized with reference gene L27. Error bars: SEM n=6 independent experiments. (C) Immunoblot of lysates from controls (C1, C2) and patient fibroblasts (P1, P2) with NCS1 antibody. GAPDH was used as a loading control. The immunoblot bands were quantified by densitometry, and the NCS1/GAPDH ratios were calculated (n=5 independent experiments). (D) Western analysis and quantification of control fibroblasts transfected with scramble siRNA (siScr) or WFS1 siRNA (siWFS1). WFS1 and NCS1 protein expression were analysed 72 h post-siRNA transfection. Data are represented as mean ±SEM from n=7 independent experiments *p<0.05, using Mann Whitney test. […]
GAPDH was used as a loading control. Quantification of NCS1 expression level after 16 h of MG-132 treatment normalized to GAPDH is shown. […]
To investigate NCS1 functions in WS, we took advantage of WFS1-null patient fibroblasts. […] We first examined the expression of WFS1 using quantitative PCR and western blot. […] Then, we analysed NCS1 mRNA and protein expression in patient cells. […]

CC(C)C[C@@H](C=O)NC(=O)[C@H](CC(C)C)NC(=O)[C@H](CC(C)C)NC(=O)OCc1ccccc1 [MG-132] (Cbz-Leu-Leu-Leu-aldehyde)
effect on NCS1 expression (control cells): ineffective
increase in NCS1 expression (patient fibroblasts, normalized to GAPDH): two-fold
